{"source": "ChEMBL document CHEMBL1201862", "about": "“PubChem BioAssay data set” (2004)", "biological_target": "Tyrosine-protein kinase Lck (Homo sapiens, UniProt P06239)", "sequence (P06239 whole entry)": "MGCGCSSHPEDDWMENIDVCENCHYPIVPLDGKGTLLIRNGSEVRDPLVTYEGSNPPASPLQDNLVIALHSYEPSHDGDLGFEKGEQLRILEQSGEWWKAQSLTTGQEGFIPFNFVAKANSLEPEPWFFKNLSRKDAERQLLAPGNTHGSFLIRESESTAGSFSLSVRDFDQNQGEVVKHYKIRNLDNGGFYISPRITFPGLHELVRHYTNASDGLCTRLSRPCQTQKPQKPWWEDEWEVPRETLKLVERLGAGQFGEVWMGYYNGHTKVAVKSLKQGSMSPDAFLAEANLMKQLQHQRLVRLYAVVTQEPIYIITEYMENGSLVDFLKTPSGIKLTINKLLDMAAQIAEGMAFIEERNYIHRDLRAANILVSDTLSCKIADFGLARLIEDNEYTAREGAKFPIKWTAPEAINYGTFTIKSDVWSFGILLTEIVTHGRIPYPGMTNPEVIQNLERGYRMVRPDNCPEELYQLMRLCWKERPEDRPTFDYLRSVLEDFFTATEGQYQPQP", "format": "functional", "note": "The source made the active and inactive calls. How the calls were made is not given here.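 Further: lck was assayed as one member of a kinase panel.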", "data": [{"smiles": "Cc1ccc2nccc(NC(=O)Nc3cccc(C(F)(F)F)n3)c2c1", "values": [{"measurement": "Ki", "result": "> 2510 nM (inactive)"}]}]}
